Legend:
[1] = Solubilization of FITC by hygromycin; type: physicochemical
Source text: For conjugating a hydrophobic cargo, the drug, activated for amine conjugation (in the following experiments, NHS and isothiocynate chemistries were used) was initially reacted in an aqueous solution (NaHCO3 0.1 M pH=8.5) of an aminoglycoside at a concentration lower than the number of available amine groups (to leave one amine available for the subsequent conjugation to the carrier). The reaction was stirred gently for overnight at room temperature. Then the solution was titrated with HCl and Na-citrate buffer was added to final concentration of 0.1 M (pH=5.5). This solution was brought to a final molar concentration of 0.75 M NaCl and finally the carrier bacteriophages was added followed by immediate addition of EDC at concentration of ×100 molar excess over the target carboxyl side chains of the targeted drug carrier. This reaction was stirred gently for 1-2 hours at room temperature, followed by exhaustive dialysis against PBS/0.3 M NaCl. This process is illustrated in FIG. 13.
EDC mediated conjugation of aminoglycosides was first accomplished by using hygromycin as a model linker. hygromycin contains only two primary amines, one for drug conjugation and the other for conjugation to a carrier. Hygromycin was initially conjugated to FITC as described above.

susceptible bacteria = assay: Growth inhibition of susceptible bacteria by the chloramphenicol-prodrug; type: cell-based; details: concentrations up to ×100 of the free chloramphenicol IC50
[2] = Stability of the CAM-linker adduct without serum (pH, PBS), HPLC; type: physicochemical
Description: To test the CAM release rate, a reverse phase HPLC analysis was done based on the fact that elution time of free CAM is about 9 min while the CAM-linker adduct is eluted about 16 min after sample injection into a reverse phase C18 column. This was done as follows: reverse phase HPLC was used to measure the chloramphenicol release rate following the incubation of chloramphenicol-prodrug in 10% or in 99% horse serum, or without serum, all in PBS. A reverse phase C-18 column was used on a LabChrom L7400 MERCK HITACHI machine with acetonitrile:water (30:70) in the mobile phase at 1 ml/min flow rate. Under these conditions, free chloramphenicol is eluted 9 min after sample loading while the intact chloramphenicol-prodrug is eluted 16 min after sample loading. The % of released chloramphenicol was calculated by dividing the area of the 9 min peak by the total peak area of all relevant peaks and multiplying by 100.

serum esterases = assay: Chloramphenicol release from its linker in horse serum, reverse phase HPLC
Description: CAM release rate from its linker in 99% horse serum. (A) Reverse phase HPLC was used to measure the breakdown rate following the incubation for the indicated time periods in 99% horse serum at 37° C. Free chloramphenicol (marked by black arrows) is eluted 9 min after sample loading while intact chloramphenicol-linker adduct (marked by gray arrows) is eluted 16 min after sample loading. (B) release rate of chloramphenicol from its linker in 10% horse serum (gray bars) or without serum (in PBS, black bars) was evaluated by HPLC as in A, the % released chloramphenicol was calculated by dividing the area of the 9 min peak by the total peak area of all relevant peaks.
To test the CAM release rate, a reverse phase HPLC analysis was done based on the fact that elution time of free CAM is about 9 min while the CAM-linker adduct is eluted about 16 min after sample injection into a reverse phase C18 column. This was done as follows: reverse phase HPLC was used to measure the chloramphenicol release rate following the incubation of chloramphenicol-prodrug in 10% or in 99% horse serum, or without serum, all in PBS. […] The % of released chloramphenicol was calculated by dividing the area of the 9 min peak by the total peak area of all relevant peaks and multiplying by 100.

Staphylococcus aureus = assay: Growth of Staphylococcus aureus treated with drug-carrying peptide-displaying phages; type: cell-based; details: free drug at concentration equivalent to that released by the phages
Source text: FIG. 11. The effect of drug-carrying peptide-displaying phages on the growth of Staphylococcus aureus. (A) Growth curves of SA cells treated with SA-specific chloramphenicol prodrug-conjugated phage A12C (triangles), chloramphenicol prodrug-conjugated irrelevant phage F2b (circles), non conjugated SA-specific phage A12C as negative control (squares). (B) Growth curves of SA cells treated with SA-specific chloramphenicol prodrug-conjugated phage A12C (triangles) or various concentration of free chloramphenicol: 0.533 μg/ml (large filled circles), 1.0625 μg/ml (small open circles), 2.125 μg/ml (large open circles) or cells grown without any growth inhibitor (filled squares). Error bars represent the standard deviation of the data.
Phage A12C was chosen to assess the targeting effect of chloramphenicol-conjugated S. aureus-specific peptide-displaying phages. Conjugates were evaluated for their effect on bacterial growth as follows: an overnight bacterial culture was diluted ×100 in PBS. 1 ml of diluted bacteria was collected by centrifugation at 14,000 RPM and pellet re-suspended in 100 μl PBS. 10 μl of this bacterial suspension was mixed with 100 μl of 10^12 phages in ml PBS, and then incubated for 1 hr. […] Growth was recorded after dilution into the TSB medium by recording the optical density (OD) at 600 nm.

With `O=C1OC2(c3ccc(O)cc3Oc3cc(O)ccc32)c2ccc(N=C=S)cc21` [FITC] the “solubility in aqueous buffer” value ([1]; FITC stock solution (38.9 mg/ml in DMSO) added to equal volume of buffer without aminoglycosides) was “immediate formation of precipitate” and the “solubility in aqueous buffer” value ([1]; conjugated to hygromycin, molar ratio 10 hygromycin:1 FITC) was “immediate solubilization”.

With `O=C(CCCC(=O)ON1C(=O)CCC1=O)OC[C@@H](NC(=O)C(Cl)Cl)[C@H](O)c1ccc([N+](=O)[O-])cc1` [chloramphenicol-prodrug] the “inhibition of the growth of susceptible bacteria” value (susceptible bacteria) was “did not inhibit the growth”, the “spontaneous hydrolysis rate of the ester bond” value ([2]; PBS alone, entire 48 h period) was “less than 5%” and the “stability of CAM-linker adduct” value ([2]; pH values between 6-8) was “stable”. The release rate kinetics (serum esterases; 10% horse serum, monitored over 48 hours, compared with 99% serum after correcting for concentration) was “same linear kinetics” and the “CAM released from the linker” value (serum esterases; 1 hr incubation in 99% horse serum at 37° C., linear kinetics) was “about 15%”.

For `O=C(N[C@H](CO)[C@H](O)c1ccc([N+](=O)[O-])cc1)C(Cl)Cl` [chloramphenicol], the “growth of the SA bacteria (OD 600 nm)” value (Staphylococcus aureus) was “did not retard”.
